From patent publication US20240002441A1, “PEPTIDES AND USES THEREOF IN MODULATION OF AMYLOID-BETA PROTEIN DEGRADING PROTEASES” (priority 2020, published 2024)

Legend:
[1] = tested on: HEK293 cells; test: Peptide stability study in HEK293 cells, LCMS (Example 4); type: in vitro ADME; conditions: peptide 9 μM, Opti-MEM, 60 min
Procedure: SEQ ID NO:2 was prepared as a C-terminal amidated analogue of SEQ ID NO:1. The stability of SEQ ID NO:1 and SEQ ID NO:2 was assessed in HEK293 and EA.hy926 cells grown in culture and their break down was monitored by LCMS over 60 min using the following procedure.
(§1) HEK293 (passage 24) or Ea.hy926 (passage 37) were seeded into tissue-culture-grade 96-well plates at a density of 20,000 cells/well. After 24 hr, cells were washed with PBS and replaced with Opti-MEM reduced serum media containing SEQ ID NO:1 or SEQ ID NO:2 (9 μM). Aliquots of equal volume were taken at T=0 and 60 min. SEQ ID NO:2 was added to control wells having media (no cells) only. Samples were immediately acidified in 0.1% TFA, snap frozen in dry ice and stored in −80° C. until analysed by LCMS.
(§2) Samples were analyzed by LC-MS/MS on a Shimadzu Nexera uHPLC (Japan) coupled to a Triple Tof 5600 mass spectrometer (ABSCIEX, Canada) equipped with a duo electrospray ion source. One μL of each extract was injected onto a 2.1 mm×100 mm Zorbax C18 1.8 um column (Agilent) at 200 μL/min. […] SEQ ID NO:1 and SEQ ID NO:2 were quantified using the […] doubly charged molecular ion from m/z 510.270 to 510.325. The data was acquired using Analyst TF 1.6 and quantification was carried out using MultiQuant 2.1.1 software (ABSCIEX, Canada).

[2] = Peptide stability control, medium with no cells (Example 4); type: in vitro ADME; conditions: media only (no cells), possible adherence to plastic
Procedure: as §1
as §2, with “μL/min. Linear gradients of 1-50% solvent B over 7 min at 200 uL/min flow rate, followed by a steeper gradient from 50% to 98% solvent B in 1 min were used for peptide elution. Solvent B was held at 98% for 3 min for washing the column and returned to 1% solvent B for equilibration prior to the next sample injection.” for “μL/min.”

[3] = target: T1, NEP (Homo sapiens, UniProt P08473); test: NEP enzyme kinetics study with QFS (Example 5); type: biochemical; conditions: NEP QFS 0-120 μM; pre-incubation 1 h at 37° C.
T1 construct: purchased R & D systems 1182-ZNC-010
Procedure: Plate reader-based enzyme assays were performed using a quenched fluorescent substrate (QFS) in a 96-well format using a SpectraMAX M4 Microplate reader (Molecular Devices). The increase in fluorescence following addition of QFS (40 μM) was taken as evidence of enzyme activity. Fluorescence was monitored over 2 h at 37° C. using κEx=320 nm and λEm=405 nm. Assays were conducted in black 96-well plates. Specific enzyme activity was expressed as a rate of substrate cleavage calculated using a standard curve of 7-methoxy-coumarin-4-acetic acid.
In all plate reader-based enzyme assays using QFS, the reaction rate (μmol of substrate cleaved/min) was calculated using linear regression analysis (GraphPad Prism software version 8.01). The reaction rates calculated were used to generate the enzyme kinetic parameters Vmax and Km through non-linear regression analysis (GraphPad Prism software, version 8.01; Michaelis-Menten equation). Where indicated, enzyme activity in the presence of peptide was expressed as a % of the enzyme alone. Data were expressed as mean±SEM and statistical significance was determined using t-tests or one-way ANOVAs followed by Tukey's post-hoc test. P<0.05 was considered as statistically significant. In all assays conducted using 96-well plates, the reaction mixtures in each well were considered an independent experiment. […]

[4] = tested on: STZ diabetic mouse model; test: STZ diabetic mouse model, inflammation and fibrosis (Example 12); type: in vivo; conditions: 1 mg/kg subcutaneously by minipump, 4 weeks
Procedure: Mice were divided into two groups, all mice were treated with STZ (150 mg/kg) 1 week before starting treatment. Prior to STZ treatment, urine and blood samples were taken and a blood glucose test undertaken. Similarly, before treatment began, one week post STZ administration, urine and blood samples were taken and blood glucose was assessed. The two treatment groups were then treated with either vehicle only or SEQ ID NO: 2 (1 mg/kg) subcutaneously by minipump. The mice were then monitored for 4 weeks before sacrifice. Monitoring included assessing the weight of each animal every day, and taking urine and blood samples and measuring blood glucose at 2 weeks post treatment and immediately before sacrifice.

T1 sequence (P08473 whole entry): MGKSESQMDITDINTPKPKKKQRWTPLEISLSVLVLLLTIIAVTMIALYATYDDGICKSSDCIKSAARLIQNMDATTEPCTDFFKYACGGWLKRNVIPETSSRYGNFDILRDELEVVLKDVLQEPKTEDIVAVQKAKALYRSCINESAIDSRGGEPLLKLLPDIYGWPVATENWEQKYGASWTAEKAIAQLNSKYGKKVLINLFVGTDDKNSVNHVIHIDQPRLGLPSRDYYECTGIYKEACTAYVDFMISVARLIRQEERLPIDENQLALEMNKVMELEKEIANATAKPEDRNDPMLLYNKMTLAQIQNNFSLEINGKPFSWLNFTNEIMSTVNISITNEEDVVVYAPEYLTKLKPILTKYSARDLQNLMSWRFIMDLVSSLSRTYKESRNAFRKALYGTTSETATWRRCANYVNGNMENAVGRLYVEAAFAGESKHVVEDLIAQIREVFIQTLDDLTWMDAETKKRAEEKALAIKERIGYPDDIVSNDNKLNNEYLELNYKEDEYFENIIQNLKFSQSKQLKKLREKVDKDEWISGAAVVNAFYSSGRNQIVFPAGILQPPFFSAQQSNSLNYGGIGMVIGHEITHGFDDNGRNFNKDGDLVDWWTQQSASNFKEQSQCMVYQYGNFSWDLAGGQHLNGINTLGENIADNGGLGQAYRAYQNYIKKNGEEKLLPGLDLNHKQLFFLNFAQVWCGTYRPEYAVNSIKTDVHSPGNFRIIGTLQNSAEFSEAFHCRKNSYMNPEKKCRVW

H-SLFELGKMIL-NH2 [SEQ ID NO:2, H2N-SLFELGKMIL-NH2]
amount remaining in the medium of HEK293 cells [1]: 54%±4%
amount remaining in the medium with no cells after 60 min [2]: 63%±14%
vmax of rhNEP in the presence of peptide [3]: 0.035±0.002 μmol substrate cleaved/min
blood glucose compared with vehicle treated mice [4]: lower
kidney IL-6 expression compared with vehicle treated mice [4]: lower
kidney collagen I expression compared with vehicle treated mice [4]: lower
kidney collagen III expression compared with vehicle treated mice [4]: lower
